Publication PMC7606179 (Acta Pharmaceutica Sinica. B, 2020)
“Also recorded” adds a separate entry of the source.

What was measured:
[1] = molecular target: Oseltamivir resistant (with H274Y mutation) neuraminidase (Influenza A virus, UniProt P03468, H260Y); type: biochemical, recombinant PR8 virus with H274Y mutation
[2] = system: PR8 resistant recombinant virus with H274Y mutation in MDCK cells; type: cell-based

In the case of `COC(=O)C1CC(=O)c2oc(=O)c3cc(O)c(O)c(O)c3c21` (stereo not shown) [B15, Methyl brevifolin carboxylate], the “NA inhibitory activity on oseltamivir resistant NA” value [1] was “can obviously inhibit NA activities”.

`O=c1oc2c(O)c(O)cc3c(=O)oc4c(O)c(O)cc1c4c23` [B21, Ellagic acid] was tested, and the “NA inhibitory activity on oseltamivir resistant NA” value [1] was “can obviously inhibit NA activities”.

`O=C(/C=C/c1ccc(O)cc1)OC[C@H]1O[C@@H](Oc2c(-c3ccc(O)cc3)oc3cc(O)cc(O)c3c2=O)[C@H](O)[C@@H](O)[C@@H]1O` [B23, Tiliroside] was tested, and the “Effect on replication of oseltamivir resistant (H274Y) PR8 virus in MDCK cells” value [2] was “obviously reduce; also recorded: greatly reduce”.

With `CCOC(=O)C1=C[C@@H](OC(CC)CC)[C@H](NC(C)=O)[C@@H](N)C1` [Oseltamivir] the “Anti-virus effect on resistant virus with NA H274Y mutation in MDCK cells” value [2] was “didn't show obvious anti-virus effects”.
